The target of assay [1] is T1, baculovirus-expressed ALK (Homo sapiens, UniProt Q9UM73).
T1 construct: host or cells: baculovirus expression system
Put plainly: ALK Kinase Assay (ELISA-type, time-resolved fluorescence). It is filed as biochemical. Particulars: 1 μM ATP (Km level), 30 ng/ml ALK, 37° C., 15 minutes; read-out: ALK Activity (ALK kinase inhibition, IC50 class). The gist of the method:
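Plates coated with phospholipase C-γ substrate (10 μg/mL in TBS); reaction started with 30 ng/ml ALK and run 15 min at 37° C. Phosphorylated substrate detected with Eu-N1-labeled PT66 antibody. IC50 from sigmoidal variable-slope fit of percent inhibition vs log concentration.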
For orientation: In an ELISA, binding on a coated surface is turned into a signal by an enzyme label.

Assay [2] concerns the target T2, c-Met (cytoplasmic domain) (Homo sapiens, UniProt P08581).
T2 construct: 10 ng/mL c-Met (cytoplasmic domain, Invitrogen Corporation #PV3143); purchased Invitrogen Corporation PV3143
Put plainly: c-Met Kinase Assay (same methods as for ALK, with modifications). Particulars: 1 μM ATP (Km level), 10 ng/mL c-Met; read-out: cMet Activity (c-Met kinase inhibition, IC50 class). The assay is classed as biochemical. The gist of the method:
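Europium-labeled PT66 antibody (Eu-N1) detects substrate phosphorylation on wells coated with phospholipase C-γ at 10 μg/mL. The kinase, the cytoplasmic domain of c-Met at 10 ng/mL, starts the reaction, which proceeds 15 minutes at 37° C.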

T1 sequence (Q9UM73 19-1620): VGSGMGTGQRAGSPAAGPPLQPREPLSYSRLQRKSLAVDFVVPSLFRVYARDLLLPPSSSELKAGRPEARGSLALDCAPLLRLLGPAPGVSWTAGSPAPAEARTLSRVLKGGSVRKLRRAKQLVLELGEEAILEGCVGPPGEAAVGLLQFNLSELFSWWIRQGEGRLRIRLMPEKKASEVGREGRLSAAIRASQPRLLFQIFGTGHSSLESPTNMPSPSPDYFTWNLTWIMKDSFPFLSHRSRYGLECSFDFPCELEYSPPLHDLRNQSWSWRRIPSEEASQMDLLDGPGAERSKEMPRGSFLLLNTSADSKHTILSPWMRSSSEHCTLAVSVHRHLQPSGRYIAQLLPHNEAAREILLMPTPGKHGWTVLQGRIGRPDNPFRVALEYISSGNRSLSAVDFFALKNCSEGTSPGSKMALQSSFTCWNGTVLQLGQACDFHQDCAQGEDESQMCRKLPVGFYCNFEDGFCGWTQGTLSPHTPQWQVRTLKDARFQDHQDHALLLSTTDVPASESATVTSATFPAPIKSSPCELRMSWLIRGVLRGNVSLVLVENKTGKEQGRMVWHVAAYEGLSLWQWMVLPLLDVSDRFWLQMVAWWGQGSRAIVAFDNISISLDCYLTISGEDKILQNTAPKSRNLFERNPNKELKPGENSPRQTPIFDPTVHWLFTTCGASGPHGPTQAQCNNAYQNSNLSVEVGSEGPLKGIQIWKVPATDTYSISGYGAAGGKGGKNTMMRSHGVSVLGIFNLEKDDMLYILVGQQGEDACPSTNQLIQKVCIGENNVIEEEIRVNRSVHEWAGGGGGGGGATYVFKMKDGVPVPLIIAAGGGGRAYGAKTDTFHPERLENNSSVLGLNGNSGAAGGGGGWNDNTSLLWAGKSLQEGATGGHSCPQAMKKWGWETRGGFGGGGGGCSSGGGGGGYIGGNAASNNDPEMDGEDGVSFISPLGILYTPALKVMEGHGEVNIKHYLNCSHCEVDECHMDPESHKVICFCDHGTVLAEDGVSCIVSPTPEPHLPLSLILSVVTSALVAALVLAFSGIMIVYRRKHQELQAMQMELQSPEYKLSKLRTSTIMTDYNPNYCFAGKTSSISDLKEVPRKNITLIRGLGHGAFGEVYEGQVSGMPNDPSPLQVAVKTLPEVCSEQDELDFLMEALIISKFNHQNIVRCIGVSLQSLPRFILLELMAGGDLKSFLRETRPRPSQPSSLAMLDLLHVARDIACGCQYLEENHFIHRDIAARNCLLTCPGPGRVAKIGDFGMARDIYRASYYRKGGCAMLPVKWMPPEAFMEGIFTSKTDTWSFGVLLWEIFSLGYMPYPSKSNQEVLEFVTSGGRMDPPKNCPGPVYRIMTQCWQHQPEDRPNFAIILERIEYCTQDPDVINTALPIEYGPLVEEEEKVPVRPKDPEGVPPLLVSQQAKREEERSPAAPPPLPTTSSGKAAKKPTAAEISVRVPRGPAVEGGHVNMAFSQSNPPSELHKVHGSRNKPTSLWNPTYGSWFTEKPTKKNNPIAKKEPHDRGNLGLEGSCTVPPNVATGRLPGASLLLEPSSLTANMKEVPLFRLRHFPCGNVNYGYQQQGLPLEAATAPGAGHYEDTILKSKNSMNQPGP
T2 sequence (P08581 956-1390 limits assumed): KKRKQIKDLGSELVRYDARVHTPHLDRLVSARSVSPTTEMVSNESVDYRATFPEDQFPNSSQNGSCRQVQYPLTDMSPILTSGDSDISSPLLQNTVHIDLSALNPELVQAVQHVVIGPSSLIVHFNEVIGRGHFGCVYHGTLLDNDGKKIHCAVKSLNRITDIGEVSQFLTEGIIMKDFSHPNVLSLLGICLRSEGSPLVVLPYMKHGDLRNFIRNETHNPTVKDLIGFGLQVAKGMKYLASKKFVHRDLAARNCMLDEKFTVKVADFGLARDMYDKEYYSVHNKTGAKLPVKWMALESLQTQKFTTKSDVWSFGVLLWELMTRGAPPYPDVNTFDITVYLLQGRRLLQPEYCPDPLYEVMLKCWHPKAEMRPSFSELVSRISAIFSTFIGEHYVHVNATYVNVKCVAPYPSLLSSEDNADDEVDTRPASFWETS

In the case of `CCCNC(=O)c1ccccc1Nc1nc(Nc2ccc3c(c2)C(C)(C)CCC(=O)N3)ncc1Cl` [Example 1022, 2-[5-Chloro-2-(5,5-dimethyl-2-oxo-2,3,4,5-tetrahydro-1H-benzo[b]azepin-7-ylamino)-pyrimidin-4-ylamino]-N-propyl-benzamide], the figures for the IC50 in assay [1] and in assay [2] were under 100 nM and 100 to 1000 nM, respectively.

For `CCCNC(=O)c1ccccc1Nc1nc(Nc2ccc3c(c2)CCN(CCOC)CC3)ncc1Cl` [Example 1023, 2-{5-Chloro-2-[3-(2-methoxy-ethyl)-2,3,4,5-tetrahydro-1H-benzo[d]azepin-7-ylamino]-pyrimidin-4-ylamino}-N-propyl-benzamide], the IC50 (usually the concentration needed to halve the response being measured) is under 100 nM in assay [1] and 100 to 1000 nM in assay [2].

For the molecule `CCCNC(=O)c1ccccc1Nc1nc(Nc2ccc3c(c2)CCCC(=O)N3)ncc1Cl` [Example 1024, 2-[5-Chloro-2-(2-oxo-2,3,4,5-tetrahydro-1H-benzo[b]azepin-7-ylamino)-pyrimidin-4-ylamino]-N-propyl-benzamide], the concentration for half-maximal inhibition (IC50) in assay [1] and in assay [2] was under 100 nM throughout.

On to `CCCNC(=O)c1ccccc1Nc1nc(Nc2cc3c(cc2OC)CCN(CCOC)CC3)ncc1Cl` [Example 1026, 2-{5-Chloro-2-[8-methoxy-3-(2-methoxy-ethyl)-2,3,4,5-tetrahydro-1H-benzo[d]azepin-7-ylamino]-pyrimidin-4-ylamino}-N-propyl-benzamide], for which the IC50 in assay [1] is under 100 nM; in assay [2] it was over 10000 nM.

Regarding `CCCCNC(=O)c1ccccc1Nc1nc(Nc2ccc3c(c2)C(C)(C)CCC(=O)N3)ncc1Cl` [Example 1027, N-Butyl-2-[5-chloro-2-(5,5-dimethyl-2-oxo-2,3,4,5-tetrahydro-1H-benzo[b]azepin-7-ylamino)-pyrimidin-4-ylamino]-benzamide], the IC50 in assay [1] is under 100 nM; in assay [2], 1000 to 10000 nM.

With `CCCCNC(=O)c1ccccc1Nc1nc(Nc2ccc3c(c2)CCN(CCOC)CC3)ncc1Cl` [Example 1028, N-Butyl-2-{5-chloro-2-[3-(2-methoxy-ethyl)-2,3,4,5-tetrahydro-1H-benzo[d]azepin-7-ylamino]-pyrimidin-4-ylamino}-benzamide], the IC50 in assay [1] was under 100 nM; in assay [2], 100 to 1000 nM.

`CCCCNC(=O)c1ccccc1Nc1nc(Nc2ccc3c(c2)CCCC(=O)N3)ncc1Cl` [Example 1029, N-Butyl-2-[5-chloro-2-(2-oxo-2,3,4,5-tetrahydro-1H-benzo[b]azepin-7-ylamino)-pyrimidin-4-ylamino]-benzamide]: the IC50 in assay [1] was 100 to 1000 nM; in assay [2], 1000 to 10000 nM.

With `CCCCNC(=O)c1ccccc1Nc1nc(Nc2cc3c(cc2OC)CCN(CCOC)CC3)ncc1Cl` [Example 1031, N-Butyl-2-{5-chloro-2-[8-methoxy-3-(2-methoxy-ethyl)-2,3,4,5-tetrahydro-1H-benzo[d]azepin-7-ylamino]-pyrimidin-4-ylamino}-benzamide], the IC50 in assay [1] was under 100 nM; in assay [2], over 10000 nM.

As to `CN(C)S(=O)(=O)c1ccccc1Nc1nc(Nc2ccc3c(c2)CCC(N2CCOCC2)CC3)ncc1Cl` (stereo not drawn) [Example 1032, 2-[5-Chloro-2-(7-morpholin-4-yl-6,7,8,9-tetrahydro-5H-benzocyclohepten-2-ylamino)-pyrimidin-4-ylamino]-N,N-dimethyl-benzenesulfonamide], the IC50 is under 100 nM in assay [1] and 100 to 1000 nM in assay [2].

As to `CN(C)S(=O)(=O)c1ccccc1Nc1nc(Nc2ccc3c(c2)CCC(O)CC3)ncc1Cl` (stereo not drawn) [Example 1033, 2-[5-Chloro-2-(7-hydroxy-6,7,8,9-tetrahydro-5H-benzocyclohepten-2-ylamino)-pyrimidin-4-ylamino]-N,N-dimethyl-benzenesulfonamide], the IC50 in assay [1] is under 100 nM; in assay [2], 100 to 1000 nM.

As to `Clc1cnc(Nc2ccc3c(c2)CCC(N2CCOCC2)CC3)nc1Nc1ccccc1-n1cccn1` (stereo not drawn) [Example 1034, 5-Chloro-N*2*-(7-morpholin-4-yl-6,7,8,9-tetrahydro-5H-benzocyclohepten-2-yl)-N*4*-(2-pyrazol-1-yl-phenyl)-pyrimidine-2,4-diamine], the IC50 in assay [1] is under 100 nM; in assay [2] it was 100 to 1000 nM.

As for `OC1CCc2ccc(Nc3ncc(Cl)c(Nc4ccccc4-n4cccn4)n3)cc2CC1` (stereo not drawn) [Example 1035, 2-[5-Chloro-4-(2-pyrazol-1-yl-phenylamino)-pyrimidin-2-ylamino]-6,7,8,9-tetrahydro-5H-benzocyclohepten-7-ol], the IC50 is under 100 nM in assay [1] and 100 to 1000 nM in assay [2].

In the case of `CC(C)S(=O)(=O)c1ccccc1Nc1nc(Nc2ccc3c(c2)CCC(N2CCOCC2)CC3)ncc1Cl` (stereo not drawn) [Example 1036, 5-Chloro-N*2*-(7-morpholin-4-yl-6,7,8,9-tetrahydro-5H-benzocyclohepten-2-yl)-N*4*-[2-(propane-2-sulfonyl)-phenyl]-pyrimidine-2,4-diamine], the IC50 is under 100 nM in assay [1] and 100 to 1000 nM in assay [2].

On to `CC(C)S(=O)(=O)c1ccccc1Nc1nc(Nc2ccc3c(c2)CCC(O)CC3)ncc1Cl` (stereo not drawn) [Example 1037, 2-{5-Chloro-4-[2-(propane-2-sulfonyl)-phenylamino]-pyrimidin-2-ylamino}-6,7,8,9-tetrahydro-5H-benzocyclohepten-7-ol], for which the values for the IC50 in assay [1] and in assay [2] were under 100 nM and 100 to 1000 nM, respectively.

For the molecule `Cc1cccc(C(=O)NCC#N)c1Nc1nc(Nc2ccc3c(c2)C(C)(C)CCC(=O)N3)ncc1Cl` [Example 1038, 2-[5-Chloro-2-(5,5-dimethyl-2-oxo-2,3,4,5-tetrahydro-1H-benzo[b]azepin-7-ylamino)-pyrimidin-4-ylamino]-N-cyanomethyl-3-methyl-benzamide], the values for the IC50 in assay [1] and in assay [2] were under 100 nM and 100 to 1000 nM, respectively.

As for `Cc1cccc(C(=O)NCC#N)c1Nc1nc(Nc2ccc3c(c2)CCCC(=O)N3C)ncc1Cl` [Example 1039, 2-[5-Chloro-2-(1-methyl-2-oxo-2,3,4,5-tetrahydro-1H-benzo[b]azepin-7-ylamino)-pyrimidin-4-ylamino]-N-cyanomethyl-3-methyl-benzamide], the figures for the IC50 in assay [1] and in assay [2] were 1000 to 10000 nM and 100 to 1000 nM, respectively.

For `COCCN1CCc2ccc(Nc3ncc(Cl)c(Nc4c(C)cccc4C(=O)NCC#N)n3)cc2CC1` [Example 1040, 2-{5-Chloro-2-[3-(2-methoxy-ethyl)-2,3,4,5-tetrahydro-1H-benzo[d]azepin-7-ylamino]-pyrimidin-4-ylamino}-N-cyanomethyl-3-methyl-benzamide], the IC50 in assay [1] and in assay [2] was 100 to 1000 nM in each case.

Regarding `CC1(C)CCC(=O)Nc2ccc(Nc3ncc(Cl)c(Nc4c(F)cccc4C(=O)NCCC#N)n3)cc21` [Example 1041, 2-[5-Chloro-2-(5,5-dimethyl-2-oxo-2,3,4,5-tetrahydro-1H-benzo[b]azepin-7-ylamino)-pyrimidin-4-ylamino]-N-(2-cyano-ethyl)-3-fluoro-benzamide], the IC50 in assay [1] is under 100 nM; in assay [2], 100 to 1000 nM.

Take `CN1C(=O)CCCc2cc(Nc3ncc(Cl)c(Nc4c(F)cccc4C(=O)NCCC#N)n3)ccc21` [Example 1042, 2-[5-Chloro-2-(1-methyl-2-oxo-2,3,4,5-tetrahydro-1H-benzo[b]azepin-7-ylamino)-pyrimidin-4-ylamino]-N-(2-cyano-ethyl)-3-fluoro-benzamide]: the half-inhibitory concentration (IC50) in assay [1] was 100 to 1000 nM; in assay [2] it was under 100 nM.

In the case of `COCCN1CCc2ccc(Nc3ncc(Cl)c(Nc4c(F)cccc4C(=O)NCCC#N)n3)cc2CC1` [Example 1043, 2-{5-Chloro-2-[3-(2-methoxy-ethyl)-2,3,4,5-tetrahydro-1H-benzo[d]azepin-7-ylamino]-pyrimidin-4-ylamino}-N-(2-cyano-ethyl)-3-fluoro-benzamide], the IC50 is 100 to 1000 nM in assay [1] and under 100 nM in assay [2].

Consider `CC1(C)CCC(=O)Nc2ccc(Nc3ncc(Cl)c(Nc4c(F)cccc4C(=O)NCC#N)n3)cc21` [Example 1044, 2-[5-Chloro-2-(5,5-dimethyl-2-oxo-2,3,4,5-tetrahydro-1H-benzo[b]azepin-7-ylamino)-pyrimidin-4-ylamino]-N-cyanomethyl-3-fluoro-benzamide], for which the IC50 in assay [1] and in assay [2] was under 100 nM throughout.

For the molecule `CN1C(=O)CCCc2cc(Nc3ncc(Cl)c(Nc4c(F)cccc4C(=O)NCC#N)n3)ccc21` [Example 1045, 2-[5-Chloro-2-(1-methyl-2-oxo-2,3,4,5-tetrahydro-1H-benzo[b]azepin-7-ylamino)-pyrimidin-4-ylamino]-N-cyanomethyl-3-fluoro-benzamide], the half-maximal inhibitory concentration (IC50) in assay [1] and in assay [2] was under 100 nM each time.

As to `N#CCNC(=O)c1cccc(F)c1Nc1nc(Nc2ccc3c(c2)CCCC(=O)N3)ncc1Cl` [Example 1046, 2-[5-Chloro-2-(2-oxo-2,3,4,5-tetrahydro-1H-benzo[b]azepin-7-ylamino)-pyrimidin-4-ylamino]-N-cyanomethyl-3-fluoro-benzamide], the IC50 in assay [1] and in assay [2] was under 100 nM each time.

Regarding `COc1cc2c(cc1Nc1ncc(Cl)c(Nc3ccccc3S(=O)(=O)N(C)C)n1)CCC(N1CCOCC1)CC2` (stereo not drawn) [Example 1049, 2-[5-Chloro-2-(3-methoxy-7-morpholin-4-yl-6,7,8,9-tetrahydro-5H-benzocyclohepten-2-ylamino)-pyrimidin-4-ylamino]-N,N-dimethyl-benzenesulfonamide], the IC50 in assay [1] is under 100 nM; in assay [2] it was over 10000 nM.

For the origin of these results see patent US8148391B2 (Cephalon, Inc., priority 2006, dated 2012).
